Experimental data from patent US8962621B2 (Shanghai Institute of Pharmaceutical Industry, priority 2010, dated 2015).

What was measured:
[1] = tested on: male Kunming mice; assay: Mice forced swimming test; type: in vivo
Protocol: Through intragastric administration, 10 mL·kg^−1 of each sample (physiological saline for the blank control group) is administrated. The mice are pre-screened for swimming one day before the actual test. The mouse is placed into water (25° C., 10 cm deep) in a glass tank (height 20 cm, diameter 14 cm) and forced to swim for 6 min. Those who stop swimming at around 70-160 s are chosen for the actual test which starts 24 h later. After 1 h of the administration, the forced swimming test is performed by placing the animal into the above-mentioned environment to swim for 6 min. The accumulative immobility time for the last 4 min is recorded. Data is statistically analyzed with t-test.

[2] = tested on: NA reuptake; assay: Yohimbine toxicity enhancement in mice; type: in vivo; conditions: for Mortality (%) 1 h / Mortality (%) 2 h / Mortality (%) 4 h / Mortality (%) 5 h / Mortality (%) 24 h: Yohimbine 25 mg/kg s.c. 1 h later, n = 10
Text: Tests of the 5-hydroxytryptophan (DL-5-HTP) potentiation in mice, Yohimbine toxicity enhancement in mice and oxidation tremors can verify a compound's inhibition effect on 5-HT, NA and DA reuptake. Compound VI-2 is selected for the tests.
a) Principles • Yohimbine can prevent the binding of NA to the receptor by occupying α2 receptor. If an antidepressant which inhibits the deactivation of NA or inhibits NA reuptake is taken together with Yohimbine, an individual may be poisoned even to death due to the raised NA concentration.
b) Test Method • This test consists of 5 experimental groups: Yohimbine control group, VI-2-1 (30 mg/kg) group, VI-2-2 (18 mg/kg) group, VI2-3 (11 mg/kg) group and VI-2-4 (6.5 mg/kg) group. The highest dose used in the DL-5-HTP potentiation test in mice is designated as the reference for the highest dose group, down from which 4 dosage groups are set with a dose ratio of 0.6 across groups. For each VI-2 group, the compound at the corresponding dosage is administrated orally, or as in the case of the Yohimbine control group, N.S is given to the animals. One hour after the treatment, Yohimbine at 25 mg/kg (life-threatening dose for the animal) is administrated by subcutaneous injection to the mice in all groups. The mortality in each group is observed and recorded at 1, 2, 4, 5 and 24 h after the administration of Yohimbine. The ED50 value is calculated accordingly.

[3] = Acute toxicity experiment (single oral gavage); conditions: mouse, in vivo, po
[4] = tested on: Histidine auxotroph mutant of mouse salmonella TA97, TA98, TA100 and TA102; type: cell-based
Text: 5. […] 6. Bacterial Reverse Mutation Test of Compounds VI-1 VI-2 and VI16 • Strains: Histidine auxotroph mutant of mouse salmonella TA97, TA98, TA100 and TA102. • Test method: The one reported in Maron DM et al: (1983) Mutay Res. 113, 173-216 is used. • Results: The test consists of two parts, i.e., −S9 and +S9. […] No bacteriostatic actions to all the strains are observed at all the other dosages, and the growth background is good.

[5] = target: DA Transporter (hDAT) (Homo sapiens, UniProt Q01959); assay: Inhibition of [3H]-DA reuptake in HEK 293 cells stably expressing hDAT; conditions: HEK293, read-out: DA Reuptake Inhibition
[6] = target: 5-HT Transporter (hSERT) (Homo sapiens, UniProt P31645); assay: Inhibition of [3H]-5-HT reuptake in HEK 293 cells stably expressing hSERT;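 also: compound preincubated 10 min at 30 °C, then 10 min uptake, filter-bound radioactivity counted by scintillation, inhibition relative to total (blank) minus non-specific (positive control) uptake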
5-HT Transporter (hSERT), sequence (P31645 whole entry): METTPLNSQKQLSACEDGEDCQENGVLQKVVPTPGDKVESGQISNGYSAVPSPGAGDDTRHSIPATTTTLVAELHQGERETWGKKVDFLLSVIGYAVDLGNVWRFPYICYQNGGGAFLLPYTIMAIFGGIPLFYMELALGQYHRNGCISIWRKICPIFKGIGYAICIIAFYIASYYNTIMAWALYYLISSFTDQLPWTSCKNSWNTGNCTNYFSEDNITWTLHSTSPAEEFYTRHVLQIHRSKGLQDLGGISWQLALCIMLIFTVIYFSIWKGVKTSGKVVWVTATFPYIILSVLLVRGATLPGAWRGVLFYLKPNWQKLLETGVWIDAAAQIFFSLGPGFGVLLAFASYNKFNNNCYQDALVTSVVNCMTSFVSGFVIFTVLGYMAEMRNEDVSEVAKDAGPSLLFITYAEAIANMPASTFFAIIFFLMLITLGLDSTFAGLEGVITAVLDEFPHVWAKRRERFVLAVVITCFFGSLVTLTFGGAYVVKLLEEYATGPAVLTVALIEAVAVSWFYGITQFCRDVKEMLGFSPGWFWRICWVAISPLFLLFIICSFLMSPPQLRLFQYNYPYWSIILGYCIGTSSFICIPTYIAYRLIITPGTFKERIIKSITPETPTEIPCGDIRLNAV

DA Transporter (hDAT), sequence (Q01959 whole entry): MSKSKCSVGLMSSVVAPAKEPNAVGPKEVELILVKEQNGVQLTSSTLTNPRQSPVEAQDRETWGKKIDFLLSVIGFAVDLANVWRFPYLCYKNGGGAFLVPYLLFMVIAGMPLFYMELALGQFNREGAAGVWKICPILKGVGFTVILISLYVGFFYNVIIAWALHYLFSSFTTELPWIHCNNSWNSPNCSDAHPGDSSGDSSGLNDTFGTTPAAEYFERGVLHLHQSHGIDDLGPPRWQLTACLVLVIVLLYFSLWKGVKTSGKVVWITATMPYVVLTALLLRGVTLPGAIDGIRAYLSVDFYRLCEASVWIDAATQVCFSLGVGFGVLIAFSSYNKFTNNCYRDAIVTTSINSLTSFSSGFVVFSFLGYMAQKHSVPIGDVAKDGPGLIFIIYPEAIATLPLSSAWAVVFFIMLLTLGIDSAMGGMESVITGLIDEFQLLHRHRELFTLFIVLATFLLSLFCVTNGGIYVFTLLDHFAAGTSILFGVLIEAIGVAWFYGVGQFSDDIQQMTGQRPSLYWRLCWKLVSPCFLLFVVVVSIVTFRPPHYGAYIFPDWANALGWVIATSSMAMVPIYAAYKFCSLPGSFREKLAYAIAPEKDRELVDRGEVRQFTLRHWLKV

CN(C)CCC(c1ccc(Cl)c(Cl)c1)N1CCCC1 (stereo not drawn) [VI-2, N,N-dimethyl-3-(3,4-dichlorophenyl)-3-(pyrrolidin-1-yl)-propylamine]
effect in the forced swimming test (in words) ([1]; 20 mg/kg): significant reduction in the immobility time
IT (sec), immobility time ([1]; 20.0 mg/kg single intragastric administration, 1 h before test, last 4 min of 6 min, n=12): 74.9 ± 37.8 s
Mortality (%) 1 h ([2]; 6.5 mg/kg oral): 0%
Mortality (%) 2 h ([2]; 6.5 mg/kg oral): 0%
Mortality (%) 4 h ([2]; 6.5 mg/kg oral): 0%
Mortality (%) 5 h ([2]; 6.5 mg/kg oral): 0%
Mortality (%) 24 h ([2]; 6.5 mg/kg oral): 0%
Mortality (%) 1 h ([2]; 11 mg/kg oral): 0%
Mortality (%) 2 h ([2]; 11 mg/kg oral): 1%
Mortality (%) 4 h ([2]; 11 mg/kg oral): 0%
Mortality (%) 5 h ([2]; 11 mg/kg oral): 0%
Mortality (%) 24 h ([2]; 11 mg/kg oral): 0%
Mortality (%) 1 h ([2]; 18 mg/kg oral): 1%
Mortality (%) 2 h ([2]; 18 mg/kg oral): 2%
Mortality (%) 4 h ([2]; 18 mg/kg oral): 0%
Mortality (%) 5 h ([2]; 18 mg/kg oral): 0%
Mortality (%) 24 h ([2]; 18 mg/kg oral): 0%
Mortality (%) 1 h ([2]; 30 mg/kg oral): 2%
Mortality (%) 2 h ([2]; 30 mg/kg oral): 0%
Mortality (%) 4 h ([2]; 30 mg/kg oral): 0%
Mortality (%) 5 h ([2]; 30 mg/kg oral): 0%
Mortality (%) 24 h ([2]; 30 mg/kg oral): 0%
enhancement of Yohimbine toxicity (in words) ([2]; 30, 18 and 11 mg/kg oral, significant dose-effect relationship): enhances the toxicity of Yohimbine
ED50 ([2]; Mus musculus, oral, Bliss method, DAS statistical software): 32.8 mg/kg
LD50 [3]: 950 mg/kg
bacteriostatic action ([4]; 5000 μg per dish, TA98 without S9 and TA97 with S9, none at other dosages): bacteriostatic action is showed
Ames test result ([4]; TA97, TA98, TA100, TA102, with or without S9, all test dosages): negative
inhibition at 10 µM [5]: 103%
inhibition effect towards the reuptake of 5-HT (in words) [6]: relatively strong inhibition effect
inhibition at 10 µM ([6]; HEK293, read-out: 5-HT Reuptake Inhibition): 94.8%
